ChEMBL document CHEMBL1201861, “Genomics of Drug Sensitity in Cancer screening data, Wellcome Trust Sanger Institute”

How the values were obtained:
Assay in all cases: cells
CaR-1 = format: functional, cell-based, Homo sapiens; conditions: Homo sapiens, CaR-1;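 also: growth inhibition of human CaR-1 cancer cells, read out with a cell viability assay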
Description: SANGER: Inhibition of human CaR-1 cell growth in a cell viability assay.

ChaGo-K-1 = format: functional, cell-based; conditions: Homo sapiens;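 also: growth inhibition of ChaGo-K-1 cells, read out with a cell viability assay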
Description: SANGER: Inhibition of human ChaGo-K-1 cell growth in a cell viability assay.

DMS-273 = format: functional, cell-based, Homo sapiens; conditions: Homo sapiens, DMS-273
Description: SANGER: Inhibition of human DMS-273 cell growth in a cell viability assay.

DOHH-2 = format: functional, cell-based; conditions: Homo sapiens;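 also: growth inhibition of human DOHH-2 cells, read out with a cell viability assay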
Description: SANGER: Inhibition of human DOHH-2 cell growth in a cell viability assay.

DU-145 = format: functional, cell-based, Homo sapiens; conditions: Homo sapiens, DU-145
Description: SANGER: Inhibition of human DU-145 cell growth in a cell viability assay.

EKVX = format: functional, cell-based, Homo sapiens; conditions: Homo sapiens, EKVX;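 also: growth inhibition of human EKVX cells, read out with a cell viability assay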
Description: SANGER: Inhibition of human EKVX cell growth in a cell viability assay.

EW-3 = format: functional, cell-based; conditions: Homo sapiens;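 also: cell viability assay read-out, IC50 reflects inhibition of growth of the EW-3 cells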
Description: SANGER: Inhibition of human EW-3 cell growth in a cell viability assay.

HCC 2998 = format: functional, cell-based, Homo sapiens; conditions: Homo sapiens, HCC 2998;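 also: growth inhibition of human HCC2998 cells, measured with a cell viability read-out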
Description: SANGER: Inhibition of human HCC2998 cell growth in a cell viability assay.

HCC38 = format: functional, cell-based, Homo sapiens; conditions: Homo sapiens, HCC38;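 also: cell viability assay on the human HCC38 cell line, with IC50 marking the concentration that inhibits cell growth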
Description: SANGER: Inhibition of human HCC38 cell growth in a cell viability assay.

HDLM-2 = format: functional, cell-based; conditions: Homo sapiens;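 also: cell viability assay measuring suppression of HDLM-2 proliferation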
Description: SANGER: Inhibition of human HDLM-2 cell growth in a cell viability assay.

HN = format: functional, cell-based, Homo sapiens; conditions: Homo sapiens, HN
Description: SANGER: Inhibition of human HN cell growth in a cell viability assay.

HT-29 = format: functional, cell-based, Homo sapiens; conditions: Homo sapiens, HT-29;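 also: growth inhibition of human HT-29 cells, read out by a cell viability assay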
Description: SANGER: Inhibition of human HT-29 cell growth in a cell viability assay.

HTC-C3 = format: functional, cell-based, Homo sapiens; conditions: Homo sapiens, HTC-C3;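 also: inhibition of cell growth, read out with a cell viability assay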
Description: SANGER: Inhibition of human HTC-C3 cell growth in a cell viability assay.

IGROV-1 = format: functional, cell-based, Homo sapiens; conditions: Homo sapiens, IGROV-1;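 also: reduction of IGROV-1 cell growth, read out with a viability assay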
Description: SANGER: Inhibition of human IGROV-1 cell growth in a cell viability assay.

KALS-1 = format: functional, cell-based, Homo sapiens; conditions: Homo sapiens, KALS-1;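 also: growth inhibition of KALS-1 cells, determined with a cell viability assay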
Description: SANGER: Inhibition of human KALS-1 cell growth in a cell viability assay.

KNS-81-FD = format: functional, cell-based, Homo sapiens; conditions: Homo sapiens, KNS-81-FD;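 also: growth inhibition of KNS-81-FD cells, read out with a cell viability assay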
Description: SANGER: Inhibition of human KNS-81-FD cell growth in a cell viability assay.

KP-N-YS = format: functional, cell-based; conditions: Homo sapiens;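 also: cell viability assay measuring inhibition of cell line growth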
Description: SANGER: Inhibition of human KP-N-YS cell growth in a cell viability assay.

KYSE-510 = format: functional, cell-based, Homo sapiens; conditions: Homo sapiens, KYSE-510;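 also: cell viability readout used to measure how strongly growth of the cell line is suppressed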
Description: SANGER: Inhibition of human KYSE-510 cell growth in a cell viability assay.

LB1047-RCC = format: functional, cell-based, Homo sapiens; conditions: Homo sapiens, LB1047-RCC;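 also: inhibition of cell growth, determined with a cell viability assay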
Description: SANGER: Inhibition of human LB1047-RCC cell growth in a cell viability assay.

LB831-BLC = format: functional, cell-based, Homo sapiens; conditions: Homo sapiens, LB831-BLC;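 also: growth inhibition of LB831-BLC cells, read out with a cell viability assay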
Description: SANGER: Inhibition of human LB831-BLC cell growth in a cell viability assay.

LCLC-103H cell line = format: functional, cell-based, Homo sapiens; conditions: Homo sapiens, LCLC-103H
Description: SANGER: Inhibition of human LCLC-103H cell growth in a cell viability assay.

NB10 = format: functional, cell-based, Homo sapiens; conditions: Homo sapiens, NB10;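 also: growth inhibition of NB10 cells, read out by a cell viability assay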
Description: SANGER: Inhibition of human NB10 cell growth in a cell viability assay.

NCI-H1299 = format: functional, cell-based, Homo sapiens; conditions: Homo sapiens, NCI-H1299;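 also: growth inhibition of human NCI-H1299 cells, read out by a cell viability assay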
Description: SANGER: Inhibition of human NCI-H1299 cell growth in a cell viability assay.

NCI-H2030 = format: functional, cell-based, Homo sapiens; conditions: Homo sapiens, NCI-H2030;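 also: growth inhibition of human NCI-H2030 cells, read out by a cell viability assay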
Description: SANGER: Inhibition of human NCI-H2030 cell growth in a cell viability assay.

NCI-H28 = format: functional, cell-based, Homo sapiens; conditions: Homo sapiens, NCI-H28;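 also: growth inhibition of human NCI-H28 cells, read out as cell viability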
Description: SANGER: Inhibition of human NCI-H28 cell growth in a cell viability assay.

NCI-H69 = format: functional, cell-based; conditions: Homo sapiens;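 also: growth inhibition of the cell line, read out with a cell viability assay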
Description: SANGER: Inhibition of human NCI-H69 cell growth in a cell viability assay.

NH-12 = format: functional, cell-based, Homo sapiens; conditions: Homo sapiens, NH-12;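 also: growth inhibition of NH-12 cells, read out with a cell viability assay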
Description: SANGER: Inhibition of human NH-12 cell growth in a cell viability assay.

NOS-1 = format: functional, cell-based, Homo sapiens; conditions: Homo sapiens, NOS-1;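 also: growth inhibition of the human NOS-1 cell line, read out with a cell viability assay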
Description: SANGER: Inhibition of human NOS-1 cell growth in a cell viability assay.

NY = format: functional, cell-based, Homo sapiens; conditions: Homo sapiens, NY
Description: SANGER: Inhibition of human NY cell growth in a cell viability assay.

OAW-42 = format: functional, cell-based, Homo sapiens; conditions: Homo sapiens, OAW-42;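 also: growth inhibition of OAW-42 cells, read out with a cell viability assay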
Description: SANGER: Inhibition of human OAW-42 cell growth in a cell viability assay.

RKO = format: functional, cell-based, Homo sapiens; conditions: Homo sapiens, RKO;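 also: growth inhibition of human RKO cells, read out with a cell viability assay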
Description: SANGER: Inhibition of human RKO cell growth in a cell viability assay.

RPMI-8226 = format: functional, cell-based; conditions: Homo sapiens
Description: SANGER: Inhibition of human RPMI-8226 cell growth in a cell viability assay.

SK-LMS-1 = format: functional, cell-based, Homo sapiens; conditions: Homo sapiens, SK-LMS-1;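 also: growth inhibition of human SK-LMS-1 cells, read out with a cell viability assay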
Description: SANGER: Inhibition of human SK-LMS-1 cell growth in a cell viability assay.

SK-MEL-28 = format: functional, cell-based; conditions: Homo sapiens;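 also: growth inhibition of human SK-MEL-28 cells, read out with a cell viability assay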
Description: SANGER: Inhibition of human SK-MEL-28 cell growth in a cell viability assay.

SK-MEL-30 = format: functional, cell-based; conditions: Homo sapiens;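 also: growth inhibition of SK-MEL-30 cells, determined with a cell viability assay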
Description: SANGER: Inhibition of human SK-MEL-30 cell growth in a cell viability assay.

SK-N-AS = format: functional, cell-based, Homo sapiens; conditions: Homo sapiens, SK-N-AS;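 also: growth inhibition of human SK-N-AS cells, measured with a cell viability assay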
Description: SANGER: Inhibition of human SK-N-AS cell growth in a cell viability assay.

SW1417 = format: functional, cell-based, Homo sapiens; conditions: Homo sapiens, SW1417;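 also: growth inhibition of human SW1417 cells, read out with a cell viability assay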
Description: SANGER: Inhibition of human SW1417 cell growth in a cell viability assay.

SW948 = format: functional, cell-based, Homo sapiens; conditions: Homo sapiens, SW948;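 also: growth inhibition of SW948 cells, read out with a cell viability assay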
Description: SANGER: Inhibition of human SW948 cell growth in a cell viability assay.

SW 954 = format: functional, cell-based, Homo sapiens; conditions: Homo sapiens, SW 954;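 also: growth inhibition of SW954 human cancer cells, read out as cell viability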
Description: SANGER: Inhibition of human SW954 cell growth in a cell viability assay.

647-V = format: functional, cell-based, Homo sapiens; conditions: Homo sapiens, 647-V;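 also: growth inhibition of 647-V cells, read out with a cell viability assay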
Description: SANGER: Inhibition of human 647-V cell growth in a cell viability assay.

A101D = format: functional, cell-based, Homo sapiens; conditions: Homo sapiens, A101D;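 also: growth inhibition of the cell line, measured with a viability assay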
Description: SANGER: Inhibition of human A101D cell growth in a cell viability assay.

A3-KAW = format: functional, cell-based; conditions: Homo sapiens;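 also: growth inhibition of human A3-KAW cells, read out with a cell viability assay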
Description: SANGER: Inhibition of human A3-KAW cell growth in a cell viability assay.

A4-Fuk = format: functional, cell-based; conditions: Homo sapiens;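 also: growth inhibition of A4-Fuk cells, read out by a cell viability assay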
Description: SANGER: Inhibition of human A4-Fuk cell growth in a cell viability assay.

AGS = format: functional, cell-based, Homo sapiens; conditions: Homo sapiens, AGS;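 also: growth inhibition of AGS cells, determined with a cell viability assay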
Description: SANGER: Inhibition of human AGS cell growth in a cell viability assay.

ATN-1 = format: functional, cell-based; conditions: Homo sapiens;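 also: growth inhibition of human ATN-1 cells, read out with a cell viability assay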
Description: SANGER: Inhibition of human ATN-1 cell growth in a cell viability assay.

BFTC-909 = format: functional, cell-based, Homo sapiens; conditions: Homo sapiens, BFTC-909
Description: SANGER: Inhibition of human BFTC-909 cell growth in a cell viability assay.

BHY = format: functional, cell-based, Homo sapiens; conditions: Homo sapiens, BHY;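 also: cell growth inhibition read out by a viability assay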
Description: SANGER: Inhibition of human BHY cell growth in a cell viability assay.

C8166 = format: functional, cell-based; conditions: Homo sapiens;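 also: growth inhibition of human C8166 cells measured by a cell viability assay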
Description: SANGER: Inhibition of human C8166 cell growth in a cell viability assay.

UMC-11 = format: functional, cell-based, Homo sapiens; conditions: Homo sapiens, UMC-11;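 also: growth inhibition of UMC-11 cells, read out with a cell viability assay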
Description: SANGER: Inhibition of human UMC-11 cell growth in a cell viability assay.

no-10 = format: functional, cell-based, Homo sapiens; conditions: Homo sapiens;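 also: growth inhibition of no-10 cells, read out with a cell viability assay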
Description: SANGER: Inhibition of human no-10 cell growth in a cell viability assay.

CAS-1 = format: functional, cell-based, Homo sapiens; conditions: Homo sapiens, CAS-1;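 also: growth inhibition of CAS-1 cells, measured with a cell viability assay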
Description: SANGER: Inhibition of human CAS-1 cell growth in a cell viability assay.

COLO-680N = format: functional, cell-based, Homo sapiens; conditions: Homo sapiens, COLO-680N;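 also: cell viability assay used to measure inhibition of COLO-680N cell growth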
Description: SANGER: Inhibition of human COLO-680N cell growth in a cell viability assay.

With `C[C@]1(O)C[C@@H](c2nc(-c3ccc4ccc(-c5ccccc5)nc4c3)c3c(N)nccn32)C1` [LINSITINIB] the IC50 (CaR-1) was > 2560 nM, the IC50 (ChaGo-K-1) was > 2560 nM and the IC50 (DMS-273) was > 2560 nM. For the same molecule, the IC50 (DOHH-2) was > 2560 nM, the IC50 (DU-145) was > 2560 nM and the IC50 (EKVX) was 1350 nM. For the same molecule, the IC50 (EW-3) was 2100 nM, the IC50 (HCC 2998) was 883 nM and the IC50 (HCC38) was > 2560 nM. The IC50 (HDLM-2) was > 2560 nM, the IC50 (HN) was > 2560 nM and the IC50 (HT-29) was 242 nM. The IC50 (HTC-C3) was > 2560 nM, the IC50 (IGROV-1) was 1150 nM and the IC50 (KALS-1) was > 2560 nM. The IC50 (KNS-81-FD) was > 2560 nM, the IC50 (KP-N-YS) was > 2560 nM and the IC50 (KYSE-510) was > 2560 nM. The IC50 (LB1047-RCC) was > 2560 nM, the IC50 (LB831-BLC) was > 2560 nM and the IC50 (LCLC-103H cell line) was > 2560 nM. The IC50 (NB10) was 454 nM, the IC50 (NCI-H1299) was > 2560 nM and the IC50 (NCI-H2030) was > 2560 nM. The IC50 (NCI-H28) was > 2560 nM, the IC50 (NCI-H69) was > 2560 nM and the IC50 (NH-12) was 760 nM. For the same molecule, the IC50 (NOS-1) was 523 nM, the IC50 (NY) was > 2560 nM and the IC50 (OAW-42) was > 2560 nM. The IC50 (RKO) was > 2560 nM, the IC50 (RPMI-8226) was > 2560 nM and the IC50 (SK-LMS-1) was > 2560 nM. For the same molecule, the IC50 (SK-MEL-28) was > 2560 nM, the IC50 (SK-MEL-30) was > 2560 nM and the IC50 (SK-N-AS) was > 2560 nM. For the same molecule, the IC50 (SW1417) was > 2560 nM, the IC50 (SW948) was > 2560 nM and the IC50 (SW 954) was > 2560 nM. The IC50 (647-V) was > 2560 nM, the IC50 (A101D) was > 2560 nM and the IC50 (A3-KAW) was > 2560 nM. The IC50 (A4-Fuk) was 28.1 nM, the IC50 (AGS) was > 2560 nM and the IC50 (ATN-1) was > 2560 nM. The IC50 (BFTC-909) was > 2560 nM, the IC50 (BHY) was > 2560 nM and the IC50 (C8166) was > 2560 nM. For the same molecule, the IC50 (UMC-11) was > 2560 nM, the IC50 (no-10) was > 2560 nM and the IC50 (CAS-1) was > 2560 nM. The IC50 (COLO-680N) was > 2560 nM.

With `C=CCc1cccc(/C=N/NC(=O)CN2CCN(Cc3ccccc3)CC2)c1O` [PAC-1] the IC50 (CaR-1) was > 2560 nM, the IC50 (ChaGo-K-1) was > 2560 nM and the IC50 (DMS-273) was > 2560 nM. The IC50 (DOHH-2) was > 2560 nM, the IC50 (DU-145) was > 2560 nM and the IC50 (EKVX) was > 2560 nM. For the same molecule, the IC50 (EW-3) was > 2560 nM, the IC50 (HCC 2998) was 1180 nM and the IC50 (HCC38) was > 2560 nM. For the same molecule, the IC50 (HDLM-2) was 1810 nM, the IC50 (HN) was > 2560 nM and the IC50 (HT-29) was > 2560 nM. The IC50 (HTC-C3) was > 2560 nM, the IC50 (IGROV-1) was 1340 nM and the IC50 (KALS-1) was > 2560 nM. For the same molecule, the IC50 (KNS-81-FD) was > 2560 nM, the IC50 (KP-N-YS) was > 2560 nM and the IC50 (KYSE-510) was 1830 nM. The IC50 (LB1047-RCC) was > 2560 nM, the IC50 (LB831-BLC) was > 2560 nM and the IC50 (LCLC-103H cell line) was 1120 nM. For the same molecule, the IC50 (NB10) was > 2560 nM, the IC50 (NCI-H1299) was > 2560 nM and the IC50 (NCI-H2030) was > 2560 nM. The IC50 (NCI-H28) was > 2560 nM, the IC50 (NCI-H69) was > 2560 nM and the IC50 (NH-12) was 987 nM. For the same molecule, the IC50 (NOS-1) was > 2560 nM, the IC50 (NY) was > 2560 nM and the IC50 (OAW-42) was > 2560 nM. The IC50 (RKO) was > 2560 nM, the IC50 (RPMI-8226) was > 2560 nM and the IC50 (SK-LMS-1) was > 2560 nM. The IC50 (SK-MEL-28) was > 2560 nM, the IC50 (SK-MEL-30) was > 2560 nM and the IC50 (SK-N-AS) was > 2560 nM. The IC50 (SW1417) was > 2560 nM, the IC50 (SW948) was > 2560 nM and the IC50 (SW 954) was > 2560 nM. For the same molecule, the IC50 (647-V) was > 2560 nM, the IC50 (A101D) was > 2560 nM and the IC50 (A3-KAW) was 1930 nM. The IC50 (A4-Fuk) was > 2560 nM, the IC50 (AGS) was > 2560 nM and the IC50 (ATN-1) was > 2560 nM. The IC50 (BFTC-909) was > 2560 nM, the IC50 (BHY) was > 2560 nM and the IC50 (C8166) was 1220 nM. The IC50 (UMC-11) was > 2560 nM, the IC50 (no-10) was > 2560 nM and the IC50 (CAS-1) was > 2560 nM. The IC50 (COLO-680N) was > 2560 nM.
